Measured values taken from the supplement of paper PMC10627819.

Tests used:
S. aureus DSM 20231 [1] = assay: Bliss interaction score (quartile over a dose matrix) (fitness difference); higher = more antagonism (negative = synergy)
Summary of the method: (§1)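 The Bliss score is observed minus expected fitness, where expected fitness is the product of the single-drug fitness values inferred from the combination data. Fitness is the OD595 at the onset of stationary phase over the plate's robust no-drug mean, capped at 1. Scores are summarised by quartiles over technical, biological and donor/recipient replicates.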

B. subtilis 168 [2] = assay: as above
Summary of the method: as §1

S. aureus Newman [3] = assay: as above
Summary of the method: as §1

S. pneumoniae D39V [4] = assay: as above
Summary of the method: as §1

S. aureus DSM 20231 [5] = assay: fitness (endpoint OD595 vs no drug) (fraction); higher = more growth
Summary of the method: (§2)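 Background-subtracted growth curves were the basis for fitness, taken as the optical density at entry into stationary phase over the robust mean of no-drug control wells. A cap of 1 was applied. The curves came from OD595 readings every 30 min for 14 h at 37 °C, in 384-well plates seeded at OD595 0.01 with 30 µl, or 55 µl for S. pneumoniae.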

B. subtilis 168 [6] = assay: as above
Summary of the method: as §2

S. aureus Newman [7] = assay: as above
Summary of the method: as §2

S. pneumoniae D39V [8] = assay: as above
Summary of the method: as §2
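For Bliss interaction score (quartile over a dose matrix) in this document: first quartile when negative (synergy) and third quartile when positive (antagonism).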

Cc1ncc([N+](=O)[O-])n1CCO [Metronidazole] + CN1C2=CC=CC=C2N=C3C1=CC=CC3=O [Pyocyanin]
Conditions | Bliss interaction score
B. subtilis 168 [2] | -0.0539
S. aureus DSM 20231 [1] | 0.0663
S. aureus Newman [3] | 0.0796
S. pneumoniae D39V [4] | 0.0391

Conditions | fitness
B. subtilis 168 [6], first compound 0.625 µg/mL, partner 1.25 µg/mL | 0.886
B. subtilis 168 [6], first compound 0.625 µg/mL, partner 2.5 µg/mL | 0.867
B. subtilis 168 [6], first compound 0.625 µg/mL, partner 5 µg/mL | 0.75
B. subtilis 168 [6], first compound 1.25 µg/mL, partner 1.25 µg/mL | 0.884
B. subtilis 168 [6], first compound 1.25 µg/mL, partner 2.5 µg/mL | 0.899
B. subtilis 168 [6], first compound 1.25 µg/mL, partner 5 µg/mL | 0.743
B. subtilis 168 [6], first compound 2.5 µg/mL, partner 1.25 µg/mL | 0.884
B. subtilis 168 [6], first compound 2.5 µg/mL, partner 2.5 µg/mL | 0.896
B. subtilis 168 [6], first compound 2.5 µg/mL, partner 5 µg/mL | 0.719
S. aureus DSM 20231 [5], first compound 0.625 µg/mL, partner 1.25 µg/mL | 0.948
S. aureus DSM 20231 [5], first compound 0.625 µg/mL, partner 2.5 µg/mL | 0.916
S. aureus DSM 20231 [5], first compound 0.625 µg/mL, partner 5 µg/mL | 0.621
S. aureus DSM 20231 [5], first compound 1.25 µg/mL, partner 1.25 µg/mL | 0.996
S. aureus DSM 20231 [5], first compound 1.25 µg/mL, partner 2.5 µg/mL | 0.97
S. aureus DSM 20231 [5], first compound 1.25 µg/mL, partner 5 µg/mL | 0.645
S. aureus DSM 20231 [5], first compound 2.5 µg/mL, partner 1.25 µg/mL | ≥ 1
S. aureus DSM 20231 [5], first compound 2.5 µg/mL, partner 2.5 µg/mL | 0.961
S. aureus DSM 20231 [5], first compound 2.5 µg/mL, partner 5 µg/mL | 0.686
S. aureus Newman [7], first compound 0.625 µg/mL, partner 1.25 µg/mL | 0.881
S. aureus Newman [7], first compound 0.625 µg/mL, partner 2.5 µg/mL | 0.831
S. aureus Newman [7], first compound 1.25 µg/mL, partner 1.25 µg/mL | 0.905
S. aureus Newman [7], first compound 1.25 µg/mL, partner 2.5 µg/mL | 0.834
S. aureus Newman [7], first compound 2.5 µg/mL, partner 2.5 µg/mL | 0.802
S. aureus Newman [7], first compound 2.5 µg/mL, partner 5 µg/mL | 0.258
S. pneumoniae D39V [8], first compound 1.073 µg/mL, partner 0.325 µg/mL | ≥ 1
S. pneumoniae D39V [8], first compound 1.073 µg/mL, partner 0.65 µg/mL | ≥ 1
S. pneumoniae D39V [8], first compound 1.073 µg/mL, partner 1.3 µg/mL | 0.795
S. pneumoniae D39V [8], first compound 2.145 µg/mL, partner 0.325 µg/mL | 0.958
S. pneumoniae D39V [8], first compound 2.145 µg/mL, partner 0.65 µg/mL | 0.98
S. pneumoniae D39V [8], first compound 2.145 µg/mL, partner 1.3 µg/mL | 0.731
S. pneumoniae D39V [8], first compound 4.29 µg/mL, partner 0.325 µg/mL | 0.98
S. pneumoniae D39V [8], first compound 4.29 µg/mL, partner 0.65 µg/mL | 0.95
S. pneumoniae D39V [8], first compound 4.29 µg/mL, partner 1.3 µg/mL | 0.815

fitness, one replicate
Conditions | first compound 0.781 µg/mL | first compound 1.25 µg/mL | first compound 1.562 µg/mL | first compound 2.5 µg/mL | first compound 3.124 µg/mL | first compound 5 µg/mL
S. aureus Newman [7], partner 1.25 µg/mL | 0.808 | – | 0.785 | – | 0.771 | –
S. aureus Newman [7], partner 2.5 µg/mL | 0.795 | – | 0.768 | – | 0.78 | –
S. aureus Newman [7], partner 5 µg/mL | 0.376 | – | 0.425 | – | 0.418 | –
S. pneumoniae D39V [8], partner 0.325 µg/mL | – | ≥ 1 | – | ≥ 1 | – | ≥ 1
S. pneumoniae D39V [8], partner 0.65 µg/mL | – | ≥ 1 | – | ≥ 1 | – | ≥ 1

COc1cccc2c1C(=O)c1c(O)c3c(c(O)c1C2=O)C[C@@](O)(C(=O)CO)C[C@@H]3O[C@H]1C[C@H](N)[C@H](O)[C@H](C)O1 [Doxorubicin] + CN1C2=CC=CC=C2N=C3C1=CC=CC3=O [Pyocyanin]
Conditions | Bliss interaction score
B. subtilis 168 [2] | 0.0456
S. aureus DSM 20231 [1] | -0.0672
S. aureus Newman [3] | -0.0556
S. pneumoniae D39V [4] | 0.0322

Conditions | fitness
B. subtilis 168 [6], first compound 0.625 µg/mL, partner 1.25 µg/mL | 0.888
B. subtilis 168 [6], first compound 0.625 µg/mL, partner 2.5 µg/mL | 0.878
B. subtilis 168 [6], first compound 0.625 µg/mL, partner 5 µg/mL | 0.684
B. subtilis 168 [6], first compound 1.25 µg/mL, partner 1.25 µg/mL | 0.853
B. subtilis 168 [6], first compound 1.25 µg/mL, partner 2.5 µg/mL | 0.841
B. subtilis 168 [6], first compound 1.25 µg/mL, partner 5 µg/mL | 0.625
B. subtilis 168 [6], first compound 2.5 µg/mL, partner 1.25 µg/mL | 0.631
B. subtilis 168 [6], first compound 2.5 µg/mL, partner 2.5 µg/mL | 0.54
S. aureus DSM 20231 [5], first compound 0.625 µg/mL, partner 1.25 µg/mL | 0.863
S. aureus DSM 20231 [5], first compound 0.625 µg/mL, partner 2.5 µg/mL | 0.827
S. aureus DSM 20231 [5], first compound 0.625 µg/mL, partner 5 µg/mL | 0.578
S. aureus DSM 20231 [5], first compound 1.25 µg/mL, partner 1.25 µg/mL | 0.857
S. aureus DSM 20231 [5], first compound 1.25 µg/mL, partner 2.5 µg/mL | 0.865
S. aureus DSM 20231 [5], first compound 1.25 µg/mL, partner 5 µg/mL | 0.641
S. aureus DSM 20231 [5], first compound 2.5 µg/mL, partner 1.25 µg/mL | 0.744
S. aureus DSM 20231 [5], first compound 2.5 µg/mL, partner 2.5 µg/mL | 0.699
S. aureus DSM 20231 [5], first compound 2.5 µg/mL, partner 5 µg/mL | 0.487
S. aureus Newman [7], first compound 0.625 µg/mL, partner 1.25 µg/mL | 0.733
S. aureus Newman [7], first compound 0.625 µg/mL, partner 2.5 µg/mL | 0.687
S. aureus Newman [7], first compound 0.625 µg/mL, partner 5 µg/mL | 0.438
S. aureus Newman [7], first compound 1.25 µg/mL, partner 1.25 µg/mL | 0.716
S. aureus Newman [7], first compound 1.25 µg/mL, partner 2.5 µg/mL | 0.639
S. aureus Newman [7], first compound 2.5 µg/mL, partner 1.25 µg/mL | 0.674
S. aureus Newman [7], first compound 2.5 µg/mL, partner 2.5 µg/mL | 0.584
S. pneumoniae D39V [8], first compound 0.25 µg/mL, partner 0.325 µg/mL | 0.986
S. pneumoniae D39V [8], first compound 0.25 µg/mL, partner 0.65 µg/mL | 0.92
S. pneumoniae D39V [8], first compound 0.25 µg/mL, partner 1.3 µg/mL | 0.766
S. pneumoniae D39V [8], first compound 0.5 µg/mL, partner 0.325 µg/mL | ≥ 1
S. pneumoniae D39V [8], first compound 0.5 µg/mL, partner 0.65 µg/mL | 0.938
S. pneumoniae D39V [8], first compound 0.5 µg/mL, partner 1.3 µg/mL | 0.773
S. pneumoniae D39V [8], first compound 1 µg/mL, partner 0.325 µg/mL | 0.942
S. pneumoniae D39V [8], first compound 1 µg/mL, partner 0.65 µg/mL | 0.868
S. pneumoniae D39V [8], first compound 1 µg/mL, partner 1.3 µg/mL | 0.729
